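The compound was tested at five concentrations on cells cultured in 96-well plates, with a 48-hour exposure period. At the GI50, growth is halved. TGI: concentration producing complete growth inhibition.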
Tests used:
Experiment in all cases: inhibition of tumour cell growth, NCI panel, 48 h
M14 melanoma = system: M14 melanoma
TK-10 renal = system: TK-10 renal
SW-620 colon = system: SW-620 colon
UO-31 renal = system: UO-31 renal
IGROV1 ovarian = system: IGROV1 ovarian
ACHN renal = system: ACHN renal
HT29 colon = system: HT29 colon
MOLT-4 leukemia = system: MOLT-4 leukemia
HOP-92 NSCLC = system: HOP-92 NSCLC
RXF 393 renal = system: RXF 393 renal

## COC(=O)C1=C(C)N(NC(=O)OC(C)(C)C)C(=O)C1=P(c1ccccc1)(c1ccccc1)c1ccccc1
M14 melanoma
  TGI: > 100 µM
TK-10 renal
  TGI: > 100 µM
SW-620 colon
  TGI: > 100 µM
UO-31 renal
  TGI: > 100 µM
IGROV1 ovarian
  TGI: > 100 µM
ACHN renal
  TGI: > 100 µM
HT29 colon
  TGI: > 100 µM
MOLT-4 leukemia
  TGI: > 100 µM
HOP-92 NSCLC
  TGI: > 100 µM
RXF 393 renal
  TGI: > 100 µM

## c1cc(CNC23CC4CC(CC(C4)C2)C3)cc(C[N+](Cc2cccc(CNC34CC5CC(CC(C5)C3)C4)c2)(Cc2cccc(CNC34CC5CC(CC(C5)C3)C4)c2)Cc2cccc(CNC34CC5CC(CC(C5)C3)C4)c2)c1 (stereo not given)
M14 melanoma
  GI50: 3.36 µM
  TGI: 8.69 µM
TK-10 renal
  GI50: 7.75 µM
  TGI: 30 µM
SW-620 colon
  GI50: 5.23 µM
  TGI: 16.5 µM
UO-31 renal
  GI50: 3.41 µM
  TGI: 8.21 µM
IGROV1 ovarian
  GI50: 3.7 µM
  TGI: 9.8 µM
ACHN renal
  GI50: 3.65 µM
  TGI: 8.92 µM
HT29 colon
  GI50: 3.58 µM
  TGI: 11.8 µM
MOLT-4 leukemia
  GI50: 5.52 µM
  TGI: 17.1 µM
HOP-92 NSCLC
  GI50: 4.74 µM
  TGI: 12.8 µM
RXF 393 renal
  GI50: 3.39 µM
  TGI: 6.54 µM

## c1ccc(CNn2nnc3ccccc32)cc1
M14 melanoma
  TGI: > 100 µM
TK-10 renal
  TGI: > 100 µM
SW-620 colon
  TGI: > 100 µM
UO-31 renal
  TGI: > 100 µM
IGROV1 ovarian
  TGI: > 100 µM
ACHN renal
  TGI: > 100 µM
HT29 colon
  TGI: > 100 µM
MOLT-4 leukemia
  TGI: > 100 µM
HOP-92 NSCLC
  TGI: > 100 µM
RXF 393 renal
  TGI: > 100 µM

## Nn1c(=O)n(Cc2ccccc2)n(-c2ccccc2)c1=O
M14 melanoma
  TGI: > 100 µM
TK-10 renal
  TGI: > 100 µM
SW-620 colon
  TGI: > 100 µM
UO-31 renal
  TGI: > 100 µM
IGROV1 ovarian
  TGI: > 100 µM
ACHN renal
  TGI: > 100 µM
HT29 colon
  TGI: > 100 µM
MOLT-4 leukemia
  TGI: > 100 µM
HOP-92 NSCLC
  TGI: > 100 µM
RXF 393 renal
  TGI: > 100 µM

## CC(C)(C)c1cc(Br)c(O)c(CN(Cc2cc(C(C)(C)C)cc(Br)c2O)C2CCCCC2)c1
M14 melanoma
  TGI: 25.5 µM
TK-10 renal
  TGI: 29.2 µM
SW-620 colon
  TGI: 25.8 µM
UO-31 renal
  TGI: 27.4 µM
IGROV1 ovarian
  TGI: 28.7 µM
ACHN renal
  TGI: 28.1 µM
HT29 colon
  TGI: 19.3 µM
MOLT-4 leukemia
  TGI: 26 µM
HOP-92 NSCLC
  TGI: 28.8 µM
RXF 393 renal
  TGI: 22.6 µM

## COC(=O)[C@H](C)NC(=O)NC(=O)NC(=O)CI
M14 melanoma
  GI50: 11.8 µM
  TGI: 27.5 µM
TK-10 renal
  GI50: 16.9 µM
  TGI: 30.6 µM
SW-620 colon
  GI50: 16.5 µM
  TGI: 34.4 µM
UO-31 renal
  GI50: 6.83 µM
  TGI: 20.1 µM
IGROV1 ovarian
  GI50: 17.1 µM
  TGI: 35.4 µM
ACHN renal
  GI50: 6.76 µM
  TGI: 21 µM
HT29 colon
  GI50: 18.1 µM
  TGI: 36.4 µM
MOLT-4 leukemia
  GI50: 2.21 µM
  TGI: 5.17 µM
HOP-92 NSCLC
  GI50: 6.79 µM
  TGI: 19.7 µM
RXF 393 renal
  GI50: 12.5 µM
  TGI: 25.5 µM

## COc1cc2c(cc1OC)C(CC(=O)NN=C(C)C)NCC2 (stereo not given)
M14 melanoma
  TGI: > 100 µM
TK-10 renal
  TGI: > 100 µM
SW-620 colon
  TGI: > 100 µM
UO-31 renal
  TGI: > 100 µM
IGROV1 ovarian
  TGI: > 100 µM
ACHN renal
  TGI: > 100 µM
HT29 colon
  TGI: > 100 µM
MOLT-4 leukemia
  TGI: > 100 µM
HOP-92 NSCLC
  TGI: > 100 µM
RXF 393 renal
  TGI: > 100 µM

## COc1cc2c3c(n(CCCNC(=O)OCC4c5ccccc5-c5ccccc54)c(=O)c2cc1OC)-c1cc2c(cc1/C3=C\CCNC(=O)OCC1c3ccccc3-c3ccccc31)OCO2
M14 melanoma
  GI50: > 25.3 µM
  TGI: > 50 µM
TK-10 renal
  GI50: > 31.7 µM
  TGI: > 50 µM
SW-620 colon
  GI50: > 24.1 µM
  TGI: > 50 µM
UO-31 renal
  GI50: > 50 µM
  TGI: > 50 µM
IGROV1 ovarian
  GI50: 0.915 µM
  TGI: 4.93 µM
ACHN renal
  GI50: > 11.8 µM
  TGI: > 35 µM
HT29 colon
  GI50: 21.5 µM
  TGI: > 50 µM
MOLT-4 leukemia
  GI50: 5.45 µM
  TGI: > 50 µM
HOP-92 NSCLC
  GI50: > 40.7 µM
  TGI: > 50 µM
RXF 393 renal
  GI50: 5.28 µM
  TGI: 14.6 µM

## CCOC(=O)C1=C(C)N(NC(=O)Nc2ccccc2)C(=O)C1=P(c1ccccc1)(c1ccccc1)c1ccccc1
M14 melanoma
  TGI: > 100 µM
TK-10 renal
  TGI: > 100 µM
SW-620 colon
  TGI: > 100 µM
UO-31 renal
  TGI: > 100 µM
IGROV1 ovarian
  TGI: > 100 µM
ACHN renal
  TGI: > 100 µM
HT29 colon
  TGI: > 100 µM
MOLT-4 leukemia
  TGI: 65.6 µM
HOP-92 NSCLC
  TGI: > 100 µM
RXF 393 renal
  TGI: 72.5 µM

## C[C@@H]1CC(=O)C2CCCC1C2=O (stereo not given in full)
M14 melanoma
  TGI: > 100 µM
TK-10 renal
  TGI: > 100 µM
SW-620 colon
  TGI: > 100 µM
UO-31 renal
  TGI: > 100 µM
IGROV1 ovarian
  TGI: > 100 µM
ACHN renal
  TGI: > 100 µM
HT29 colon
  TGI: > 100 µM
MOLT-4 leukemia
  TGI: > 100 µM
HOP-92 NSCLC
  TGI: > 100 µM
RXF 393 renal
  TGI: > 100 µM

## COC(C(O)CO)C(O)C(O)C(=O)NNc1ccccc1 (stereo not given)
M14 melanoma
  TGI: > 100 µM
TK-10 renal
  TGI: > 100 µM
SW-620 colon
  TGI: > 100 µM
UO-31 renal
  TGI: > 100 µM
IGROV1 ovarian
  TGI: > 100 µM
ACHN renal
  TGI: > 100 µM
HT29 colon
  TGI: > 100 µM
MOLT-4 leukemia
  TGI: > 100 µM
HOP-92 NSCLC
  TGI: > 100 µM
RXF 393 renal
  TGI: > 100 µM

## Oc1cccnc1CN1CCCCC1
M14 melanoma
  TGI: > 100 µM
TK-10 renal
  TGI: > 100 µM
SW-620 colon
  TGI: > 100 µM
UO-31 renal
  TGI: > 100 µM
IGROV1 ovarian
  TGI: > 100 µM
ACHN renal
  TGI: > 100 µM
HT29 colon
  TGI: > 100 µM
MOLT-4 leukemia
  TGI: > 100 µM
HOP-92 NSCLC
  TGI: > 100 µM
RXF 393 renal
  TGI: > 100 µM
